Test results taken from ChEMBL document CHEMBL5321272 (J Med Chem, 2023).
The source made the active and inactive calls. The rule behind the calls is not given here.

How the values were obtained:
[1] = tested on: BaF3; assay: Antiproliferative activity against mouse BaF3 cells harboring FLT3 D835F mutant assessed as reduction in cell viability incubated for 72 hrs by CellTiter 96 Aqueous One Solution Cell Proliferation Assay; type: functional, cell-based
[2] = tested on: BaF3; assay: Antiproliferative activity against mouse BaF3 cells harboring FLT3 F691L mutant assessed as reduction in cell viability incubated for 72 hrs by CellTiter 96 Aqueous One Solution Cell Proliferation Assay; type: functional, cell-based
[3] = Cmax in ICR mouse at 10 mg/kg, po; type: ADME, organism-based; parameters: dose 10 mg/kg, route po; conditions: in vivo
[4] = AUC (infinity) in ICR mouse at 10 mg/kg, po; type: ADME, organism-based; parameters: dose 10 mg/kg, route po; conditions: in vivo
[5] = MRT (infinity) in ICR mouse at 10 mg/kg, po; type: ADME, organism-based; conditions: in vivo
[6] = target: Receptor-type tyrosine-protein kinase FLT3 (Homo sapiens, UniProt P36888, ITD); assay: Inhibition of FLT3 ITD mutant (unknown origin) by HTRF assay
[7] = target: Mitogen-activated protein kinase kinase kinase 7 (Homo sapiens, UniProt O43318); assay: Inhibition of TAK1 (unknown origin) by HTRF assay
[8] = target: Ribosomal protein S6 kinase beta-1 (Homo sapiens, UniProt P23443); assay: Inhibition of P70S6K (unknown origin) by HTRF assay
[9] = target: Hepatocyte growth factor receptor (Homo sapiens, UniProt P08581); assay: Inhibition of MET (unknown origin) by HTRF assay
[10] = target: Casein kinase I isoform alpha (Homo sapiens, UniProt P48729); assay: Inhibition of CK1 alpha (unknown origin) by HTRF assay
[11] = Selectivity ratio of IC50 for HCK (unknown origin) to IC50 for FLT3-ITD mutant (unknown origin)
[12] = Selectivity ratio of IC50 for TEC (unknown origin) to IC50 for FLT3-ITD mutant (unknown origin)
[13] = Selectivity ratio of IC50 for BTK (unknown origin) to IC50 for FLT3-ITD mutant (unknown origin)
[14] = Selectivity ratio of IC50 for EGFR (unknown origin) to IC50 for FLT3-ITD mutant (unknown origin)
[15] = Selectivity ratio of IC50 for P70S6K (unknown origin) to IC50 for FLT3-ITD mutant (unknown origin)
[16] = Selectivity ratio of IC50 for CDK2 (unknown origin) to IC50 for FLT3-ITD mutant (unknown origin)
[17] = Selectivity ratio of IC50 for TAK1 (unknown origin) to IC50 for FLT3-ITD mutant (unknown origin)
[18] = Selectivity ratio of IC50 for ALK (unknown origin) to IC50 for FLT3-ITD mutant (unknown origin)
[19] = Selectivity ratio of IC50 for IRAK4 (unknown origin) to IC50 for FLT3-ITD mutant (unknown origin)
[20] = Selectivity ratio of IC50 for ASK1 (unknown origin) to IC50 for FLT3-ITD mutant (unknown origin)
[21] = target: T1, Voltage-gated inwardly rectifying potassium channel KCNH2 (Homo sapiens, UniProt Q12809); assay: Inhibition of hERG expressed in HEK293 cells assessed as inhibition of tail current at 1 to 10 uM by whole cell patch clamp analysis; type: toxicity, cell-based; conditions: hek293, 10 µM, dose 1-10 µM
[22] = target: T1, Voltage-gated inwardly rectifying potassium channel KCNH2; assay: Inhibition of hERG expressed in HEK293 cells assessed as fast channel deactivation at 100 uM by whole cell patch clamp analysis; type: toxicity, cell-based; conditions: hek293, 100 µM
[23] = target: Receptor-type tyrosine-protein kinase FLT3 (Homo sapiens) (UniProt P36888); assay: Inhibition of FLT3 in human MV4-11 cells assessed as inhibition of FLT3 phosphorylation measured after 90 mins by western blot analysis; type: cell-based; conditions: dose 20-100 nM
[24] = target: Receptor-type tyrosine-protein kinase FLT3 (Homo sapiens) (UniProt P36888); assay: Inhibition of FLT3 in human MV4-11 cells assessed as inhibition of STAT5 phosphorylation at Tyr694 residue measured after 90 mins by western blot analysis; type: cell-based; conditions: dose 20-100 nM
[25] = target: Receptor-type tyrosine-protein kinase FLT3 (Homo sapiens) (UniProt P36888); assay: Inhibition of FLT3 in human MV4-11 cells assessed as inhibition of STAT5 phosphorylation at Tyr694 residue at 20 nM measured after 90 mins by western blot analysis; type: cell-based
[26] = target: T2, Serine/threonine-protein kinase Chk1 (Homo sapiens) (UniProt O14757); assay: Inhibition of CHK1 in human MV4-11 cells assessed as downregulation of c-Myc protein expression at 50 to 200 nM measured after 90 mins by western blot analysis; type: cell-based; conditions: dose 50-200 nM
T2 sequence (whole entry): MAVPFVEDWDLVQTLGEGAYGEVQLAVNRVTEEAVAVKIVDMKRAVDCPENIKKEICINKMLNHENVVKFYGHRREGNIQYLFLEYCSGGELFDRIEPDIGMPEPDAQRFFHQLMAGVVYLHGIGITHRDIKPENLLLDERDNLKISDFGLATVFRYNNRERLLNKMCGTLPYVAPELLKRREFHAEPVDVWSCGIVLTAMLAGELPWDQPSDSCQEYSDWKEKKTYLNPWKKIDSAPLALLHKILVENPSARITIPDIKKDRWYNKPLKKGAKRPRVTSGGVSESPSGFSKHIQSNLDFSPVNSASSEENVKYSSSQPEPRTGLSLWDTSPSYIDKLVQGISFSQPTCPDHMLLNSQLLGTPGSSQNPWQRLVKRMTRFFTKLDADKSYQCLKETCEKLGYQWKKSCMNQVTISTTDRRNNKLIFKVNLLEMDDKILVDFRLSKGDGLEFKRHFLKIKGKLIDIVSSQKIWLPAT

[27] = target: T2, Serine/threonine-protein kinase Chk1 (Homo sapiens); assay: Inhibition of CHK1 in human MV4-11 cells assessed as upregulation of p21 protein expression measured after 90 mins by western blot analysis; type: cell-based; conditions: dose 50-200 nM
[28] = tested on: MV4-11; assay: Antitumor activity against human MV4-11 cells xenografted in nu/nu mouse assessed as inhibition of tumor growth administered orally qd for 22 days; type: functional; conditions: dose 1-3 mg/kg, route po, time 22.0 day
[29] = tested on: MV4-11; assay: Antitumor activity against human MV4-11 cells xenografted in nu/nu mouse assessed as inhibition of tumor growth rate at 3 mg/kg, po qd for 22 days; type: functional; conditions: MV4-11, 528 h, time 22 day
[30] = Acute toxicity in ICR mouse assessed as morphological changes in heart at 300 mg/kg, ig and measured for 7 days by Hematoxylin-Eosin staining based analysis; type: organism-based; conditions: in vivo, po, 168 h, time 7 day
[31] = Acute toxicity in ICR mouse assessed as morphological changes in spleen at 300 mg/kg, ig and measured for 7 days by Hematoxylin-Eosin staining based analysis; type: organism-based; conditions: in vivo, po, 168 h, time 7 day
[32] = Acute toxicity in ICR mouse assessed as morphological changes in lungs at 300 mg/kg, ig and measured for 7 days by Hematoxylin-Eosin staining based analysis; type: organism-based; conditions: in vivo, po, 168 h, time 7 day
[33] = Acute toxicity in ICR mouse assessed as morphological changes in kidney at 300 mg/kg, ig and measured for 7 days by Hematoxylin-Eosin staining based analysis; type: organism-based; conditions: in vivo, po, 168 h, time 7 day
[34] = tested on: MV4-11; assay: cells; conditions: Homo sapiens, MV4-11, 72 h
Description: Antiproliferative activity against human MV4-11 cells assessed as reduction in cell viability incubated for 72 hrs by CellTiter 96 Aqueous One Solution Cell Proliferation Assay

[35] = tested on: BaF3; assay: cells; conditions: Mus musculus, BaF3, 72 h
Description: Antiproliferative activity against mouse BaF3 cells harboring FLT3-ITD-N701K mutation assessed as reduction in cell viability incubated for 72 hrs by CellTiter 96 Aqueous One Solution Cell Proliferation Assay

Chain of Receptor-type tyrosine-protein kinase FLT3 (Homo sapiens) (P36888 whole entry): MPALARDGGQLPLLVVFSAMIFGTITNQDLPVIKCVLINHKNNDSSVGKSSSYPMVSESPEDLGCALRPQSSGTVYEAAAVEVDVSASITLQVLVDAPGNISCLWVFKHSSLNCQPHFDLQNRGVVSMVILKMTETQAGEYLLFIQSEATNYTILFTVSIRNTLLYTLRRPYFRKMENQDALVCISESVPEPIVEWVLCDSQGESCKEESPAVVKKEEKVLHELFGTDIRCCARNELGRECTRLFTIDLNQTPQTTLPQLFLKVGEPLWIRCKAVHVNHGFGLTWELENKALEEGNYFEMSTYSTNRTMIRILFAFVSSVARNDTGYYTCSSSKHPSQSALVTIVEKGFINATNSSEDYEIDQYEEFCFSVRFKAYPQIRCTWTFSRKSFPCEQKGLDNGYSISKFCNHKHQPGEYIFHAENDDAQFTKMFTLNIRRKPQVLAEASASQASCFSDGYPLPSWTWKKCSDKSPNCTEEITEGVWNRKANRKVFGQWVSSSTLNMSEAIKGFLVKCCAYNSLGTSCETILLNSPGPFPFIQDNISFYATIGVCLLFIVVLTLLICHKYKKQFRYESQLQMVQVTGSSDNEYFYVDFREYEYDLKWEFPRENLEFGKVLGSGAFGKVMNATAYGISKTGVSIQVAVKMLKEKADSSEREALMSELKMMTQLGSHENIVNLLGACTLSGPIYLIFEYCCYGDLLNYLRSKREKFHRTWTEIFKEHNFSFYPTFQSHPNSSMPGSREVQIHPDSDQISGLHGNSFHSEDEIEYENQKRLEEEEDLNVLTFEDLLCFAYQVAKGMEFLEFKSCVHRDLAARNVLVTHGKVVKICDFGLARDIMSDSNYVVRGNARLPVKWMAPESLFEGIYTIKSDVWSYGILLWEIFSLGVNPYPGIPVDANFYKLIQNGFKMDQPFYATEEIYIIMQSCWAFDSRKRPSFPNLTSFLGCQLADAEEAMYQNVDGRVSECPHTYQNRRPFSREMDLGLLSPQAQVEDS
T1 sequence (Q12809 whole entry): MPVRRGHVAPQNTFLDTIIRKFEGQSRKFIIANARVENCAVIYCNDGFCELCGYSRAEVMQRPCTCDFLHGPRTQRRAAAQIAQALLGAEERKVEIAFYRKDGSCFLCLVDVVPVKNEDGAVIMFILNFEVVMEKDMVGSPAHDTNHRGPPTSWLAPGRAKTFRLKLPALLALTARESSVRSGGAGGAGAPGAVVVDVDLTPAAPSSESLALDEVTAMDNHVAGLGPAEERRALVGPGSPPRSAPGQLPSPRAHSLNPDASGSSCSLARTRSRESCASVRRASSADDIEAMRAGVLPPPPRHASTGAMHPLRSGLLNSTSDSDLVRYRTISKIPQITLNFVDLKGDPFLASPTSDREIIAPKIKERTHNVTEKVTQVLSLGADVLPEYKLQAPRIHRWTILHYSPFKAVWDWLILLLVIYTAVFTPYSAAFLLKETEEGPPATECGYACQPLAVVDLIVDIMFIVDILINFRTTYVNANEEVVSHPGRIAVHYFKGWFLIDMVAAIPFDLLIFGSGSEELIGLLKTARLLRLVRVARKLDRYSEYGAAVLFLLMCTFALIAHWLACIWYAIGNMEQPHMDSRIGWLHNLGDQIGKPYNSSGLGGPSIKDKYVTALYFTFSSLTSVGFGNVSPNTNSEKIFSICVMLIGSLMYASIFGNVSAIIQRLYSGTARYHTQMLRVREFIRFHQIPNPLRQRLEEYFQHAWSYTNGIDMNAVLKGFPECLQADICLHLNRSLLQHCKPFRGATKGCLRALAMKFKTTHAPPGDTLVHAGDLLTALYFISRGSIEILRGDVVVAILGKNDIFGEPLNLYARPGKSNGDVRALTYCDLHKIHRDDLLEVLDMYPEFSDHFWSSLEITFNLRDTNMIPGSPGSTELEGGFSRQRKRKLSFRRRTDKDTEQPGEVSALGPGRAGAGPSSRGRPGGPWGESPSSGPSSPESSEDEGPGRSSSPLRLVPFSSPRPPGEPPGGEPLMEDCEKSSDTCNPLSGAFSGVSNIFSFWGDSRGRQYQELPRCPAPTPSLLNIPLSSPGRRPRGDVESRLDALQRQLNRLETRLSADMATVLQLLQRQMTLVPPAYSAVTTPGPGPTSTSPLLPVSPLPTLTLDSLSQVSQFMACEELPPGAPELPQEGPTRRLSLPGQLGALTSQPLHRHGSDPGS
Chain of Ribosomal protein S6 kinase beta-1 (P23443 whole entry): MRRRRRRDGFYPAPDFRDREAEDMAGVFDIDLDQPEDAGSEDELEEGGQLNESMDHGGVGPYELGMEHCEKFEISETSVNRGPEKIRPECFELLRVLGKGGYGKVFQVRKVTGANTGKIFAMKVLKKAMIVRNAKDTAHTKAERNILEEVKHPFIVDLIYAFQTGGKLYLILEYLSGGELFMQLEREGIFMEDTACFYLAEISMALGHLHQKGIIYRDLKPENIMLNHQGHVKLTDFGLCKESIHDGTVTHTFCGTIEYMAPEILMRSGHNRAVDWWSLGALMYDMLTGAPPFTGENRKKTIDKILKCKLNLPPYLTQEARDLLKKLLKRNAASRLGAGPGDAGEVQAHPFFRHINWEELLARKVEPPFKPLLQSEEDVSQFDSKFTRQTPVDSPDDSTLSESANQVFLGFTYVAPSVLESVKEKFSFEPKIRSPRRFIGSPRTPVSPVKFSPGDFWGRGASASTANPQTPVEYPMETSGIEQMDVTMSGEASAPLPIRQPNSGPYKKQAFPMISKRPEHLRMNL
Chain of Casein kinase I isoform alpha (P48729 whole entry, canonical isoform): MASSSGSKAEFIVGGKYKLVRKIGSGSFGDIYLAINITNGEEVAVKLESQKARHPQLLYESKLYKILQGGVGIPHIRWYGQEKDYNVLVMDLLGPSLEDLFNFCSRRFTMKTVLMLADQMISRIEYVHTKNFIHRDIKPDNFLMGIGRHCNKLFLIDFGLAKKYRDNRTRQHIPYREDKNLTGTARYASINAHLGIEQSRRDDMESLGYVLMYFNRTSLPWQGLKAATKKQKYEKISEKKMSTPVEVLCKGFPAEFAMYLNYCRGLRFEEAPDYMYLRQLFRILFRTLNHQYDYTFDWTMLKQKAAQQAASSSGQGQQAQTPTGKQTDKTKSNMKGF
Chain of Hepatocyte growth factor receptor (P08581 whole entry, canonical isoform): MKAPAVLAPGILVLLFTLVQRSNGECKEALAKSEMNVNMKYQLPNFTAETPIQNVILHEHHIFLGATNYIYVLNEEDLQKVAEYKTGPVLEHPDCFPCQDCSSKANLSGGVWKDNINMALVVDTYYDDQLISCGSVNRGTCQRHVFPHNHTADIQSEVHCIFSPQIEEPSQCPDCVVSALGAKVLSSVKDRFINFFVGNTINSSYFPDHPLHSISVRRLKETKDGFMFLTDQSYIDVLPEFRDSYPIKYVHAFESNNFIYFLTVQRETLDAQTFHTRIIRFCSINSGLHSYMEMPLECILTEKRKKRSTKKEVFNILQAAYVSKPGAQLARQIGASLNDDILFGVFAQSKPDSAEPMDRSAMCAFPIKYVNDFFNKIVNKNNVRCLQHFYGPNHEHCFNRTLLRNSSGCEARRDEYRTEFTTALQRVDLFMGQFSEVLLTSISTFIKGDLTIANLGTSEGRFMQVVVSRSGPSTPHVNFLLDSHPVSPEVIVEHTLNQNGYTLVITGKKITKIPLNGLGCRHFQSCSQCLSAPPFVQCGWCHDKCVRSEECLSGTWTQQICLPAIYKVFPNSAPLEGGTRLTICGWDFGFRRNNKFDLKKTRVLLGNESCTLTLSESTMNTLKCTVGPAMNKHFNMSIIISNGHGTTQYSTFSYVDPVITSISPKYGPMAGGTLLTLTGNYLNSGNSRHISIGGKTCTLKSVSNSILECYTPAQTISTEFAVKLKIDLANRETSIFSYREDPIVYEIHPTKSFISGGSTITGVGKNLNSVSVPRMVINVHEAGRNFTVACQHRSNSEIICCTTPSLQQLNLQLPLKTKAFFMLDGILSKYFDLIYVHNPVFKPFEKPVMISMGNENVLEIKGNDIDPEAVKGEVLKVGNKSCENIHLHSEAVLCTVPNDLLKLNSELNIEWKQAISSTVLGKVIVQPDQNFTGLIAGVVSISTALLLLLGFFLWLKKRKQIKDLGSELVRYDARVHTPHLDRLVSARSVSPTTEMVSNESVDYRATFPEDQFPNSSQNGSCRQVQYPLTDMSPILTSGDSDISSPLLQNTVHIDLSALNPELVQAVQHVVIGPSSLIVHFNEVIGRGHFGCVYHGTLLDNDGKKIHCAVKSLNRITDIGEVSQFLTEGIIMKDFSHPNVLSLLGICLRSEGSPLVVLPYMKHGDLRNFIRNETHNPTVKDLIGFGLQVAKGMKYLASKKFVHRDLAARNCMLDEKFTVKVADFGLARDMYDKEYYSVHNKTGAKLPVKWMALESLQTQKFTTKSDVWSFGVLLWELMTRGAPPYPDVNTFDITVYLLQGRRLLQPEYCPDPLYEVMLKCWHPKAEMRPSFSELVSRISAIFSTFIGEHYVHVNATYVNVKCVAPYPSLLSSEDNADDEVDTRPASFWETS
Chain of Mitogen-activated protein kinase kinase kinase 7 (O43318 whole entry): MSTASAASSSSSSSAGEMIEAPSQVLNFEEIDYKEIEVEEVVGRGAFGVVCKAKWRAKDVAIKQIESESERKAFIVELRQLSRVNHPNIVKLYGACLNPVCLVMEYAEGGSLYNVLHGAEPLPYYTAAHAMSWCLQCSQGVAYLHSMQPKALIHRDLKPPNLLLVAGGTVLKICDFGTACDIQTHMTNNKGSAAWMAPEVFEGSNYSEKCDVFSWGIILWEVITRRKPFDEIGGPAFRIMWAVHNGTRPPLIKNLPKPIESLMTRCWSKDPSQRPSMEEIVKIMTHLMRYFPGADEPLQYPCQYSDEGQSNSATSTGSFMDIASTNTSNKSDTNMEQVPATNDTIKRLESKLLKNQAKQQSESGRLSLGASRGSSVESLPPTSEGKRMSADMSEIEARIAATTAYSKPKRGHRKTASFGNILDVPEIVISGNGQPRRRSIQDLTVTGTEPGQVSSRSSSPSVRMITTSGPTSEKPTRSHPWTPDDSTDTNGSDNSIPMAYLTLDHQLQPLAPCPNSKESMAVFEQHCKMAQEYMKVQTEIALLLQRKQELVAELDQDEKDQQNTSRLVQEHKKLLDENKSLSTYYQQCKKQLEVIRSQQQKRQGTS
Chain of Receptor-type tyrosine-protein kinase FLT3 (P36888 whole entry, looked up, change not shown): as the sequence (P36888 whole entry) above

Compound: CC(C)(O)CC(=O)N1CCc2cc(Nc3ncc(C(F)(F)F)c(N[C@H]4CC[C@@H](N)CC4)n3)ccc2C1
- Activity [1]: Active
- Activity [2]: Active
- Cmax [3]: 0.571 µg/mL
- AUC(0-inf) [4]: 1.66 µg·h/mL
- MRT inf [5]: 5.73 h
- IC50 [6]: < 0.01 µM
- IC50 [7]: 0.0643 µM
- IC50 [8]: 0.0916 µM
- IC50 [9]: > 10 µM
- IC50 [10]: > 10 µM
- Ratio IC50 [11]: > 100
- Ratio IC50 [12]: > 100
- Ratio IC50 [13]: > 100
- Ratio IC50 [14]: > 100
- Ratio IC50 [15]: > 100
- Ratio IC50 [16]: > 100
- Ratio IC50 [17]: > 100
- Ratio IC50 [18]: > 100
- Ratio IC50 [19]: > 100
- Ratio IC50 [20]: > 100
- inhibition (INH) [21]: Not Active
- inhibition (INH) [22]: Active
- inhibition [23]: Dose-Dependent Effect
- inhibition [24]: Dose-Dependent Effect
- inhibition [25]: 100%
- inhibition [26]: Active
- inhibition [27]: Dose-Dependent Effect
- Activity [28]: Dose-Dependent Effect
- inhibition in vivo at 3 mg/kg [29]: 52.8%
- Activity [30]: Non-Toxic
- Activity [31]: Non-Toxic
- Activity [32]: Non-Toxic
- Activity [33]: Non-Toxic
- IC50 [34]: 0.00021 µM
- IC50 [35]: 0.0082 µM
